Key:
[1] = tested on: inflammation created by injecting carrageenin into the hind paws of rats; test: Carrageenin Assay; type: in vivo; conditions: Rattus norvegicus, ip, 50 mg/kg i.p., prior to carrageenin injection, read-out: Percent Inhibition (Antiinflammatory Activity in the Carrageenin Assay)
Method: The compounds were evaluated for antiinflammatory activity in the test method described by C. A. Winter, Proc. Soc. Exp. Biol. Med., 111, 544 (1962). In this test, inflammation is created by injecting carrageenin into the hind paws of rats. Test compounds are administered prior to injection to determine percent inhibition of the subsequent inflammation in comparison with control animals.

[2] = tested on: Arachidonic Acid Induced Ear Edema; test: Arachidonic Acid-Induced Ear Edema Assay; type: in vivo, Female BALB/C mice; conditions: Mus musculus, 1 h, topical, one hour prior to arachidonic acid, read-out: Percent Inhibition of Ear Swelling; for inhibition in vivo at 1 %: 1% in ethanol gel; for inhibition in vivo at 0.05 %: 0.05% in ethanol gel
Method: Female BALB/C mice (Charles River; 18-20 rams) were divided into groups of five. Arachidonic acid was dissolved in ethanol at a concentration of 200 mg/ml. Each mouse received 2 mg/ear of arachidonic acid on the inner surface of the right ear. This dose of phlogistic was applied by an automatic pipette in 10 mcl volumes. The left ear (control) received ethanol. Drugs were applied topically in an ethanol-based gel to the entire outer surface of both ears one hour prior to arachidonic acid application. Edema was measured by the increase in ear weight. An hour after arachidonic acid solution or vehicle was applied, an ear sample of 7 mm in diameter was obtained from both ears. Ear edema was calculated by subtracting the […], dividing by the weight of the left/Control ear, and averaging the results for each group of mice according to compound and concentration.

[3] = target: T1, leukotriene B4 specific receptor on the membrane of human neutrophils (Homo sapiens, UniProt Q15722); test: Inhibition of Binding of ^3 H-LTB4 to Peripheral Human Neutrophils; conditions: 4° C., 10 minutes; for inhibition at 10 µM: drug concentration 10^-5 M, read-out: LTB4 Binding Inhibition; for inhibition at 1 µM: drug concentration 10^-6 M; for inhibition at 0.1 µM: drug concentration 10^-7 M
T1 construct: incubating neutrophils (1×10^7 cells) with 0.1-0.2 nM ^3 H-LTB4; endogenous in cells; host or cells: human peripheral blood neutrophils (buffy coats of two blood donors)
Method in brief: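 Freshly isolated human donor neutrophils (1×10^7 cells) in HBSS/0.1% ovalbumin pH 7.3 were incubated with 0.1-0.2 nM ^3H-LTB4 and compound at 1×10^-5 or 1×10^-6 M for 10 min at 4 °C. Bound ligand was separated by centrifugation through phthalate oil and counted, then corrected for nonspecific binding and compared with compound-free control.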

[4] = tested on: shock after E. coli LPS and galactosamine (GALN) challenge; test: Mouse Endotoxin Shock Assay; type: in vivo, C57BL/6 male mice; conditions: LPS/GALN s.c. challenge, results 48 hours after challenge, Reed Muench Method
Method: Compounds were given to 18-20 g C57BL/6 male mice using various regimens depending upon mode of administration. Control animals received corresponding vehicles only. The mice were then challenged with 0.2 ml of chromatographically purified 0111:B4 E. coli LPS and galactosamine hydrochloride (GALN) given subcutaneously (back of the neck). GALN was given at an approximate dose of 500 mg/kg whereas the LPS dose ranged between 0.3-1.2 μg/mouse (15-60 μg/k9). Control animals generally die of shock 7-15 hours after administration of LPS/GALN although a small number (0-5%) may die 24-48 hours after such administration. Calculation of the EDso for each compound was performed using the Reed Muench Method for results obtained 48 hours after challenge.

[5] = tested on: IL-1 induced T-cell Proliferation; test: Anti IL-1 Activity (Thymocyte Assay): suppression of IL-1 induced T-cell proliferation; type: cell-based, C3H/HeJ male mice; conditions: mouse thymocytes, 48 hours, read-out: Percent T-cell suppression; for inhibition at 1 µg/mL: 1 mcg/ml; for inhibition at 10 µg/mL: 10 mcg/ml
Method: Thymus from 3-4 week old C3H/HeJ male mice and were passed through a #100 mesh screen to make a single cell suspension. The cells were suspended in RPMI-1640 supplemented with 2×10^-5 M 2-mercaptoethanol, 3% fetal calf serum, and 1% Penicillin/Streptomycin. The cell suspension was placed in a tissue culture flask and incubated at 37° C. in 5% carbon dioxide in air for 1-2 hours. The thymocytes were decanted, leaving adherent cells behind, and the liquid was centrifuged at 1400 rpm for 10 minutes. After decanting the supernatant, the cells were resuspended and counted with a hemocytometer. The density was adjusted to […]. Fifty μ1 of the suspension were added to each well of a 96-well microtiter plate, followed by the addition of 25 μl of PHA and 25 μl IL-1 (1:25 dilution of a 10 mcg/ml stock solution) per well.
Each compound to be tested was dissolved in 30% DMSO/70% PBS to make a stock solution of 1 mg/ml. Fifteen μl of each compound were added to 300 μl of media in the serial dilution plate. Twenty-five μl of each drug were added to the test plate in quadruplicate wells across the plate. The plate was incubated at 37° C. in 5% carbon dioxide in air for 48 hours. The wells were pulsed with tritiated thymidine (5 μCi.well) for 4 hours before harvesting on a Skatron cell harvester. The filter discs were placed in mini-vials, scintillation fluid (Tol-Pop) was added, and the vials counted. The percent of counts for each vial compared with control samples wherein no compound was added (vehicles only) was determined for each compound and are reported as Table III below as the percent T-ce1 suppression.

T1 sequence (Q15722 whole entry): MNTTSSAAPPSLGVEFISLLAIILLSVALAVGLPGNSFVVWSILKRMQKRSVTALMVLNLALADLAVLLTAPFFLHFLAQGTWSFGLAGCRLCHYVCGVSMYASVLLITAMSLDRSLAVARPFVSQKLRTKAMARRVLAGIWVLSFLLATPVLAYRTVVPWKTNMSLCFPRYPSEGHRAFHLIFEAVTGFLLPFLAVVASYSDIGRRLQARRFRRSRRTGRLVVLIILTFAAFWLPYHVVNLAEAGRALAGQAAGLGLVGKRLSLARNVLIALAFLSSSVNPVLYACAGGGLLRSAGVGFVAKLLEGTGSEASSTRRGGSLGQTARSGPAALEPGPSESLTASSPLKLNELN

SMILES | inhibition in vivo at 50 mg/kg [1] | inhibition in vivo at 1 % [2] | inhibition at 10 µM [3] | inhibition at 1 µM [3] | inhibition in vivo at 0.05 % [2] | ED50 [4] | inhibition at 0.1 µM [3] | inhibition at 1 µg/mL [5] | inhibition at 10 µg/mL [5] | inhibition in vivo at 0.028 % ([2]; 0.028% in ethanol gel) | inhibition in vivo at 0.1 % ([2]; 0.1% in ethanol gel)
CCc1cc(C(C)=O)c(O)cc1OCCCCc1nn[nH]n1 [Example 110, 5-Ethyl-2-hydroxy-4-[4-(lH-tetrazol-5-y)butoxy]acetophenone] | 64% | 58% | 49% | 19% |  |  |  |  |  |  | 
CCc1cc(C(C)=O)c(O)cc1OCCCC(C)(C)c1nnn[nH]1 [Example 136, 1-(5-Ethyl-2-hydroxy-4-{[4-methyl-4-(1H-tetrazol-5-yl)pentyl]oxy}phenyl)ethanone] | 41% |  | 100% | 77% |  |  |  |  |  |  | 
CCCc1cc(C(C)=O)c(O)cc1OCCCc1ccccc1 [Example 53, 2-Hydroxy-4-(3-phenylpropoxy)-5-propyl-acetophenone] | 50 to 60% |  | 5% | 13% | 24% |  |  |  |  |  | 
C=CCc1cc(C(C)=O)c(O)cc1OCc1cccc(C#N)c1 [Example 50] | 50 to 82% |  | 67% | 66% | 29 to 47% | 9.5 mg/kg | 25% |  |  |  | 
CCc1cc(C(C)=O)c(O)cc1OCCCCCC(C)(C)c1nn[nH]n1 [Example 108, 5-Ethyl-2-hydroxy-4-[6-methyl-6-(1H-tetrazol5-yl)heptyloxy]acetophenone] | 61% | 60% | 105% | 96% |  | > 50 mg/kg | 60% |  |  |  | 
CCc1cc(C(C)=O)c(O)cc1OCCCCc1nnnn1C [Example 122, 2-Hydroxy-4-[4-(1-methyl-lH-tetrazol-5-yl)butoxy]-5-ethylacetophenone] | 53% | 10% | 66% | 24% |  | 42 mg/kg |  | 37% | 87% |  | 
CCc1cc(C(C)=O)c(O)cc1OCCCCC#N [Example 19, 5-(4-Acetyl-2-ethyl-5-hydroxyphenoxy)-pentanenitrile] | 26% |  | 90% | 61% |  |  |  |  |  |  | 
CCc1cc(C(C)=O)c(O)cc1OCCCCc1nnn(C)n1 [Example 123, 2-Hydroxy-4-[4-(2-methyl-2H-tetrazol-5-yl)butoxy]-5-ethylacetophenone] | 55% | 58% | 98% | 60% |  |  |  | 36% | 90% |  | 
CCc1cc(C(C)=O)c(O)cc1OCCCCCCc1nnn[nH]1 [Example 140, 1-(5-Ethyl-2-hydroxy-4-{[6-(1H-tetrazol-5-yl)-hexyl]oxy}phenyl)ethanone] | 31% |  | 94% | 59% |  |  |  |  |  |  | 
CCc1cc(C(C)=O)c(O)cc1OCc1cccc(C(=O)OC)c1 [Example 93] |  |  | 64% | 22% |  | 25 mg/kg |  |  |  |  | 
CCc1cc(C(C)=O)c(O)cc1OCCCCCC(C)(C)C(=O)O [Example 87, 7-(4-Acetyl-2-ethyl-5-hydroxyphenoxy)-2,2-dimethylheptanoic acid] | 15% | 3% | 104% | 73% |  |  | 20% |  |  |  | 
CCc1cc(C(C)=O)c(O)cc1OCCCCCCS(C)(=O)=O [Example 83, 2-Hydroxy-4-[6-(methylsulfonyl)hexyl-oxy]-5-ethylacetophenone] | 26% |  | 98% | 61% |  | > 50 mg/kg |  | 29% | 43% | 59% | 
CCc1cc(C(C)=O)c(O)cc1OCc1cccc(C#N)c1 [Example 55] | 70% | 57% | 60% | 71% | 43 to 59% | 3.1 mg/kg | 25% |  |  |  | 
CCc1cc(C(C)=O)c(O)cc1OCCCCCCC#N [Example 20, 7-(4-Acetyl-2-ethyl-5-hydroxyphenoxy)-heptanenitrile] | 19% |  | 102% | 72% |  |  |  | 39% | 99% |  | 
C=CCc1cc(C(C)=O)c(O)cc1OCCCCCC(=O)NO [Example 100, 6-(4-Acetyl-5-hydroxy-2-allylphenoxy)-droxyhexanamide] | 38% | 18% | 84% | 28% |  |  |  |  |  |  | 
C=CCc1cc(C(C)=O)c(O)cc1OCc1ccccc1C#N [Example 49, 2-[(4-Acetyl-5-hydroxy-2-allylphenoxy)-methyl]benzonitrile] | 43% |  | 47% | 15% | 31% | > 50 mg/kg |  |  |  |  | 
CCc1cc(C(C)=O)c(O)cc1OCc1cccc(F)c1 [Example 54, 5-Ethyl-4-(3-fluorobenzyloxy)-2-hydroxy-acetophenone] |  |  | 42% | 32% |  | 21 mg/kg |  |  |  |  | 
C=CCc1cc(C(C)=O)c(O)cc1OCc1ccccc1 [Example 47, 2-Hydroxy-4-benzyloxy-5-allylacetophenone] | 53 to 65% |  | 32% | 5% | 52% | 24 mg/kg |  |  |  |  | 
C=CCc1cc(C(C)=O)c(O)cc1OCc1cccc(C)c1 [Example 51, 2-Hydroxy-4-(3-methylbenzyloxy)-5-allyl-acetophenone] | 79% |  | 24% | 32% | 43% | 27 mg/kg |  |  |  |  | 31%
C=CCc1cc(C(C)=O)c(O)cc1OCc1ccc(C#N)cc1 [Example 48, 4[(4-Acetyl-5-hydroxy-2-allylphenoxy)-methyl]benzonitrile] | 30% |  | 22% | 28% | 13.6% | 18.6 mg/kg |  |  |  |  | 

From US5098613A, “Anti-inflammatory agents” (Eli Lilly and Company, priority 1990, dated 1992)
